# Assay results reported in patent publication US5066652A, “Thiomethyl and sulfinylmethyl derivatives having gastric acid antisectetory activity and pharmaceutical compositions containing them” (Chiesi Farmaceutici S.p.A., priority 1988, dated 1991).
# Structures can show the parent of a compound that is named as a salt. Where two headings read alike, the source gives them in different places.
# Key:
# [1] = test system: secretion of hydrochloric acid in the stomach; assay: Lumen-perfused rat stomach in situ (histamine-induced hypersecretion); type: in vivo; conditions: for ED50: histamine 35 mcg/kg/min, 3 hours; for ED50 / α (intrinsic activity): intraduodenal; for α (intrinsic activity): histamine; for PR = potency ratio: in comparison with omeprazole
# Procedure: Lumen-perfused rat stomach in situ The experiments were done according to Ghosh M. N. and Schild H. O. (Br. J. Pharmacol. 13, 54-61, 1958). […] After a midline abdominal incision, a PVC tube was inserted into the stomach via the esophagus and the stomach was perfused with saline (37° C.) at a rate of 1 ml/min. A second tube draining the pylorus was inserted through the abdominal wall for collection of gastric secretion. […] After equilibration of basal secretion an hypersecretion was induced by infusion of histamine 35 mcg/kg/min, through the femoral vein. […] Mean gastric output was determined for a 3 hours test period following drug administration. The last 30 minutes interval prior to dosing was used as a control. The dose-response relationship was established using the maximum inhibition obtained at each individual dose.
# [2] = test system: secretion of hydrochloric acid in the stomach (Shay ulcers); assay: Antisecretory activity - Shay ulcers (pylorus-ligated rat); type: in vivo; conditions: for Emax: Rattus norvegicus, α=1 represents 100% inhibition of gastric acid hypersecretion, read-out: α (approximate value of intrinsic activity); for Emax / ED50: 2 h; for ED50: rat, pylorus ligation, intraduodenal or intravenous; for PR (potency ratio in comparison with Omeprazole): ratio of mean ED50 on the 3 parameters of test compound to mean ED50 of omeprazole
# Procedure: Antisecretory activity--Shay ulcers The gastric secretory inhibitory activity of the compounds of general formula (I) was determined in case of hypersecretion induced in the rat by ligation of gastroduodenal junction according to the procedure described by Shay (Shay H. et al, Gasgroenterology 5, 43-61, 1945). […] Thereafter, they were fasted for 24 hours, with water ad libitum, which period was sufficient to assure a good gastric emptying, then laparectomized under light ether anesthesia, so as to allow to effect a pylorus ligation as closer as possible to the gastroduodenal junction. Two hours after the ligation, the animals were killed by means of an ether excess and stomaches were removed. Gastric contents were recovered, after filtration through a gauze, and placed in graduated test-tubes and centrifuged at 3000×g for 15 minutes. The following parameters were evaluated on the surnatant: volume (ml); pH; free acidity by conversion of pH into H^+ μEq by means of Moore table (Ann. New York Acad. Sci. 1967, 866-874); titrable acidity, by titration of an amount with 0.02N NaOH, using phenolphtalein as the indicator. […] The results were expressed as percent inhibition of hypersecretion induced by pylorus ligation in the control rats. The obtained results are reported in table 3 as: ED50 (μmol/kg) calculated on the basis of the equation of the linear tract of does-effect curves obtained with the test compounds on volume, free and titrable acidities; […]
# [3] = test system: gastric hemorrhagic lesions induced by absolute ethanol; assay: Protection against gastric lesions induced in rats by necrotizing agents (absolute ethanol); type: in vivo; conditions: po; rat, gavage 30 minutes before 1 ml absolute ethanol; lesion score ≤ 2 considered protected
# Procedure: Protection against gastric lesions induced in rats by necrotizing agents
# The experiments were done on male rats weighing 260-300 g starved (with free access to water) for 18 hours.
# Absolute ethanol was administered by gavage in the volume of 1 ml.
# Test substances or the vehicle alone for the controls were given by gavage 30 minutes before the necrotizing agent in a 5% suspension of methylcellulose volume 2.5 ml kg^-1. One hour after administration of the necrotizing agent, the animals were killed and examined for lesions of the glandular portion of the gastric mucosa. The lesions presenting as blackish lesions grouped in patches of varying size, usually parallel to the major axis of the stomach, were scored according to the following arbitrary scale:
# 1=hyperemic mucosa, or up to 3 small patches;
# 2=from 4 to 10 small patches;
# 3=more than 10 small or up to 3 medium-sized patches;
# 4=from 4 to 6 medium-sized patches;
# 5=more than 6 medium-sized or up to 3 large patches;
# 6=from 4 to 6 large patches;
# 7=from 7 to 10 large patches;
# 8=more than 10 large patches or extensive necrotic zones.
# "Small"0 was defined as up to 2 mm across (max diameter), "medium-sized" as between 2 and 4 mm across and "large" as more than 4 mm across.
# Animals with gastric lesion score ≤ 2 were considered protected.
# ED50 values were calculated according to Wilcoxon method.
# The results are expressed in table 5.
# [4] = Toxicity after single administration (acute toxicity, oral); conditions: mouse, in vivo, mice, p.o., lethality 7 days after treatment, Probits method, read-out: Acute Toxicity (DL50 approx. mg/kg p.o.)
# Procedure: Toxicity after single administration.
# The tests have been carried out in IVA:NMRI (SPF) mice fasted with water ad libitum since 18 hours before treatment.
# The compounds were administered by the oral route, at constant volume (10 ml/kg) in a 0.2% aqueous solution of Tween 80.
# On the basis of lethality observed 7 days after the treatment, the approximate LD50 were determined according to the Probits method.
# [5] = read-out: ED50 free acid output
# [6] = read-out: ED50 titratable acid output
# [7] = free acid output, read-out: ED50 free acid output
# [8] = secretion volume, read-out: ED50 volume
# [9] = titratable acid output, read-out: ED50 titratable acid output
Structure (SMILES),"ED50 [1, 5] [µmol/kg]","ED50 [1, 6] [µmol/kg]",α (intrinsic activity) [1],PR = potency ratio [1],Emax [2] [%],"ED50 [2, 7] [µmol/kg]","ED50 [2, 8] [µmol/kg]","ED50 [2, 9] [µmol/kg]",PR (potency ratio in comparison with Omeprazole) [2],ED50 [3] [mg/kg],LD50 at 168 h [4] [mg/kg]
"CN/C(=N/CCSCc1nc[nH]c1C)NC#N [Cimetidine, reference compound]",11.8,11.1,1,5.1,100,24.1,47.3,23.9,"11,5",,
"[O-][S+](Cc1ccc2ccccc2n1)c1nc2cccnc2[nH]1 (centres unmarked) [LI, 2-(2'-quinolylmethylsulfinyl)imidazo-[4,5-b]-pyridine]",,,,,100,4.8,10.3,5.6,"2,5",20,~750
"COc1ccc2[nH]c([S+]([O-])Cc3ncc(C)c(OC)c3C)nc2c1 (centres unmarked) [Omeprazole HCL, reference compound]",,,,,,,,,,,~1400
"Cn1ccnc1SCc1nc2cc(C(=O)c3ccccc3)ccc2[nH]1 [X, 1-methyl-2-[2'-(5'-benzoyl)-benzimidazolylmethylthio]imidazole. 2H3 PO4]",,,,,70 to 80,2.7,10,2.7,"1,9",,~1400
"CN(C)c1ccccc1CSc1nccn1C [XI, 1-methyl-2-[2'-(N,N-dimethylanilyl)methylthio]imidazole. 2HCl]",60.6,40.9,1,22.4,100,31.9,40,29.6,"12,2",20,~450
COc1ccc(C)nc1CSc1ncnc2[nH]cnc12 [XLIII],,,,,100,83,89,81.6,"30,6",60,
"COc1ccnc(CSc2nccn2-c2cccc(F)c2)c1C [XX, 1-(3'-fluorophenyl)-2-[2'-(3'-methyl-4'-methoxypyridyl)methylthio]imidazole]",,,,,70 to 80,65,80,65,"25,3",50,
"Fc1cccc(-n2ccnc2SCc2nc3ccccc3[nH]2)c1 [XXI, 1-(3'-fluorophenyl)-2-[2'-(benzimidazolyl)methylthio]imidazole.2HCl]",,,,,100,27,38,29,"11,3",70,~900
"c1ccc(-n2ccnc2SCc2nc3ccccc3[nH]2)cc1 [XXII, 1-phenyl-2-[2'-(benzimidazolyl)methylthio]imidazole.2HCl]",,,,,80,16.8,30.5,22.3,"8,4",63,~1000
Fc1ccc(-n2ccnc2SCc2nc3ccccc3[nH]2)cc1 [XXIV],,,,,70 to 80,12.5,20.5,15.7,"5,9",47,~2000
"COc1ccc(-n2ccnc2SCc2ccccc2N(C)C)cc1 [XXIX, 1-(4'-methoxyphenyl)-2-[2 '-(N,N-dimethylanilyl)methylthio]imidazole.2HCl]",,,,,100,86.1,144,107,"40,7",,> 2000
"CN(C)c1ccccc1CSc1nccn1-c1ccccc1 [XXVIII, 1-phenyl-2-[2'-(N,N-dimethylanilyl)methylthio]imidazole. 2HCl]",31.4,19.9,1,11.3,100,40.6,55.4,44.9,"17,0",,
"[O-][S+](Cc1nc2ccccc2[nH]1)c1nccn1-c1ccc(F)cc1 (centres unmarked) [XXXIX, 1-(4'-fluorophenyl)-2-[2'-(benzimidazolyl)methylsulfinyl]-imidazole]",,,,,80,139,300,165,"72,8",,
"CN(C)c1ccccc1CSc1nccn1-c1ccccc1C(F)(F)F [XXXV, 1-(2'-trifluoromethylphenyl)-2-[2'-(N,N-dimethylanilyl)methylthio]imidazole. 2HCl]",,,,,100,8.3,24.9,5,"4,6",,
"c1ccc(-n2ccnc2SCc2ccc3ccccc3n2)cc1 [XXXVI, 1-phenyl-2-[2'-(quinolyl)methylthio]imidazole]",,,,,60 to 70,50,120,80,"30,1",,
"COc1ccnc(C[S+]([O-])c2nccn2-c2cccc(F)c2)c1C (centres unmarked) [XXXVII, 1-(3'-fluorophenyl)-2-[2'-(3'-methyl-4'-methoxypyridyl)methylsulphinyl]imidazole]",,,,,60 to 80,73,80,80,"28,1",,
CN(C)c1ccccc1CSc1nccn1-c1ccc(F)cc1 [XXX],,,,,100,9.2,21.1,11.2,"5,0",,
